System: HCV RNA replication (replicon cell lines Huh-7, 5.2 and ET)
Assay: Cell-Based Luciferase Reporter HCV RNA Replication Assay
Settings: Hepatitis C virus, Huh-7, 96 h, Huh-7, 5.2 or ET replicon cells, luciferase counts after 4 days incubation; read-out: IC50

SMILES | IC50
CC(C)C(=O)N[C@H]1CC[C@@H](N(c2cc(C3=CCCCC3)sc2C(=O)O)C(=O)[C@H]2CC[C@H](C)CC2)CC1 [Compound 133, 5-cyclohex-1-enyl-3-[(cis-4-isobutyrylamino-cyclohexyl)-(trans-4-methyl-cyclohexanecarbonyl)-amino]-thiophene-2-carboxylic acid] | < 5 µM
CC(C)C(=O)N[C@H]1CC[C@H](N(c2cc(C3=CCCCC3)sc2C(=O)O)C(=O)[C@H]2CC[C@H](C)CC2)CC1 [Compound 134, 5-cyclohex-1-enyl-3-[(trans-4-isobutyrylamino-cyclohexyl)-(trans-4-methyl-cyclohexanecarbonyl)-amino]-thiophene-2-carboxylic acid] | < 5 µM
CC1(C)CCC(c2cc(N(C(=O)[C@H]3CC[C@H](C)CC3)[C@H]3CC[C@H](n4ccnn4)CC3)c(C(=O)O)s2)CC1 [Compound 135, 5-(4,4-dimethyl-cyclohexyl)-3-[(trans-4-methyl-cyclohexanecarbonyl)-(trans-4-[1,2,3]triazol-1-yl-cyclohexyl)-amino]-thiophene-2-carboxylic acid] | < 5 µM
C[C@H]1CC[C@H](C(=O)N(c2ccc3c(c2)OCO3)c2cc(C3=CCCCC3)sc2C(=O)O)CC1 [Compound 136, 3-[benzo[1,3]dioxol-5-yl-(trans-4-methyl-cyclohexanecarbonyl)-amino]-5-cyclohex-1-enyl-thiophene-2-carboxylic acid] | < 5 µM
COC1CCC(N(C(=O)C2CCC(C)CC2)c2cc(C3CCC(F)CC3)sc2C(=O)O)CC1 (stereo not drawn) [Compound 137, 5-(4-ciz-trans-fluoro-cyclohexyl)-3-[(4-trans-methoxy-cyclohexyl)-(4-trans-methyl-cyclohexanecarbonyl)-amino]-thiophene-2-carboxylic acid] | < 5 µM
COC1CCC(N(C(=O)C2CCC(C)CC2)c2cc(C3=CCCC(C)(C)C3)sc2C(=O)O)CC1 (stereo not drawn) [Compound 138, 5-(5,5-dimethyl-cyclohex-1-enyl)-3-[(4-trans-methoxy-cyclohexyl)-(4-trans-methyl-cyclohexanecarbonyl)-amino]-thiophene-2-carboxylic acid] | < 5 µM
CC(C)C(=O)N1CCC(N(c2cc(C3=CCCCC3)sc2C(=O)O)C(=O)[C@H]2CC[C@H](C)CC2)CC1 [Compound 141, 5-Cyclohex-1-enyl-3-[(1-isobutyryl-piperidin-4-yl)-(trans-4-methylcyclohexanecarbonyl)-amino]-thiophene-2-carboxylic acid] | < 5 µM
CSCO[C@H]1CC[C@H](N(c2cc(C3=CCCCC3)sc2C(=O)O)C(=O)[C@H]2CC[C@H](C)CC2)CC1 [Compound 142, 5-cyclohex-1-enyl-3-[(trans-4-methyl-cyclohexanecarbonyl)-(trans-4-methylsulfanylmethoxy-cyclohexyl)-amino]-thiophene-2-carboxylic acid] | < 5 µM

Same assay, conditions: Huh-7, 5.2 or ET replicon cells, luciferase counts after 4 days incubation; read-out: IC50

SMILES | IC50
COCC1CCC(N(C(=O)C2CCC(C)CC2)c2cc(C3=CCCCC3)sc2C(=O)O)CC1 (stereo not drawn) [Compound 132, 5-cyclohex-1-enyl-3-[(4-trans-methoxymethyl-cyclohexyl)-(4-trans-methyl-cyclohexanecarbonyl)-amino]-thiophene-2-carboxylic acid] | < 5 µM

— US8674118B2, “Compounds and methods for the treatment or prevention of flavivirus infections” (priority 2005, dated 2014)
